Data reported in publication PMC9481151, “Discovery of new symmetrical and asymmetrical nitrile-containing 1,4-dihydropyridine derivatives as dual kinases and P-glycoprotein inhibitors: synthesis, in vitro assays, and in silico studies” (Journal of Enzyme Inhibition and Medicinal Chemistry, 2022).

Legend:
NCI-H460 = experiment: NCI single dose (10 µM) SRB screen; format: cell-based, human; settings: non-small cell lung cancer, 48 h
786-0 = experiment: NCI single dose (10 µM) SRB screen; format: cell-based, human; settings: renal cancer, 48 h
SF-268 = experiment: NCI single dose (10 µM) SRB screen; format: cell-based, human; settings: CNS cancer, 48 h
Pseudomonas aeruginosa = experiment: Agar well diffusion method
SN12C = experiment: NCI single dose (10 µM) SRB screen; format: cell-based, human; settings: renal cancer, 48 h
SF-539 = experiment: NCI single dose (10 µM) SRB screen; format: cell-based, human; settings: CNS cancer, 48 h
SR = experiment: NCI single dose (10 µM) SRB screen; format: cell-based, human; settings: leukaemia, 48 h
A498 = experiment: NCI single dose (10 µM) SRB screen; format: cell-based, human; settings: renal cancer, 48 h
CCRF-CEM = experiment: NCI single dose (10 µM) SRB screen; format: cell-based, human; settings: leukaemia, 48 h
MDA-MB-231 = experiment: NCI single dose (10 µM) SRB screen; format: cell-based, human; settings: breast cancer, 48 h
SK-OV-3 = experiment: NCI single dose (10 µM) SRB screen; format: cell-based, human; settings: ovarian cancer, 48 h
MALME-3M = experiment: NCI single dose (10 µM) SRB screen; format: cell-based, human; settings: melanoma, 48 h
HL-60(TB) = experiment: NCI single dose (10 µM) SRB screen; format: cell-based, human; settings: leukaemia, 48 h
MDA-MB-468 = experiment: NCI single dose (10 µM) SRB screen; format: cell-based, human; settings: breast cancer, 48 h
OVCAR-3 = experiment: NCI single dose (10 µM) SRB screen; format: cell-based, human; settings: ovarian cancer, 48 h
COLO 205 = experiment: NCI single dose (10 µM) SRB screen; format: cell-based, human; settings: colon cancer, 48 h
PC-3 = experiment: NCI single dose (10 µM) SRB screen; format: cell-based, human; settings: prostate cancer, 48 h
MDA-MB-435 = experiment: NCI single dose (10 µM) SRB screen; format: cell-based, human; settings: melanoma, 48 h
DU-145 = experiment: NCI single dose (10 µM) SRB screen; format: cell-based, human; settings: prostate cancer, 48 h
RPMI-8226 = experiment: NCI single dose (10 µM) SRB screen; format: cell-based, human; settings: leukaemia, 48 h
NCI-H522 = experiment: NCI single dose (10 µM) SRB screen; format: cell-based, human; settings: non-small cell lung cancer, 48 h
HOP-62 = experiment: NCI single dose (10 µM) SRB screen; format: cell-based, human; settings: non-small cell lung cancer, 48 h
SW-620 = experiment: NCI single dose (10 µM) SRB screen; format: cell-based, human; settings: colon cancer, 48 h
OVCAR-8 = experiment: NCI single dose (10 µM) SRB screen; format: cell-based, human; settings: ovarian cancer, 48 h
UACC-62 = experiment: NCI single dose (10 µM) SRB screen; format: cell-based, human; settings: melanoma, 48 h
SNB-75 = experiment: NCI single dose (10 µM) SRB screen; format: cell-based, human; settings: CNS cancer, 48 h
MOLT-4 = experiment: NCI single dose (10 µM) SRB screen; format: cell-based, human; settings: leukaemia, 48 h
RXF 393 = experiment: NCI single dose (10 µM) SRB screen; format: cell-based, human; settings: renal cancer, 48 h
NCI-H23 = experiment: NCI single dose (10 µM) SRB screen; format: cell-based, human; settings: non-small cell lung cancer, 48 h
OVCAR-4 = experiment: NCI single dose (10 µM) SRB screen; format: cell-based, human; settings: ovarian cancer, 48 h
A549/ATCC = experiment: NCI single dose (10 µM) SRB screen; format: cell-based, human; settings: non-small cell lung cancer, 48 h
T-47D = experiment: NCI single dose (10 µM) SRB screen; format: cell-based, human; settings: breast cancer, 48 h
SNB-19 = experiment: NCI single dose (10 µM) SRB screen; format: cell-based, human; settings: CNS cancer, 48 h
HOP-92 = experiment: NCI single dose (10 µM) SRB screen; format: cell-based, human; settings: non-small cell lung cancer, 48 h
LOX IMVI = experiment: NCI single dose (10 µM) SRB screen; format: cell-based, human; settings: melanoma, 48 h
UACC-257 = experiment: NCI single dose (10 µM) SRB screen; format: cell-based, human; settings: melanoma, 48 h
BT-549 = experiment: NCI single dose (10 µM) SRB screen; format: cell-based, human; settings: breast cancer, 48 h
SK-MEL-28 = experiment: NCI single dose (10 µM) SRB screen; format: cell-based, human; settings: melanoma, 48 h
HCC-2998 = experiment: NCI single dose (10 µM) SRB screen; format: cell-based, human; settings: colon cancer, 48 h
NCI 60 cancer cell lines = experiment: NCI single dose (10 µM) SRB screen, mean over panel; format: cell-based, human; settings: mean over 60 cell lines, 48 h
NCI/ADR-RES = experiment: NCI single dose (10 µM) SRB screen; format: cell-based, human; settings: ovarian cancer, 48 h
Staphylococcus aureus = experiment: Agar well diffusion method
U251 = experiment: NCI single dose (10 µM) SRB screen; format: cell-based, human; settings: CNS cancer, 48 h
SF-295 = experiment: NCI single dose (10 µM) SRB screen; format: cell-based, human; settings: CNS cancer, 48 h
Bacillus subtilis = experiment: Agar well diffusion method
HCT-116 = experiment: NCI single dose (10 µM) SRB screen; format: cell-based, human; settings: colon cancer, 48 h
K-562 = experiment: NCI single dose (10 µM) SRB screen; format: cell-based, human; settings: leukaemia, 48 h
EKVX = experiment: NCI single dose (10 µM) SRB screen; format: cell-based, human; settings: non-small cell lung cancer, 48 h
HCT-15 = experiment: NCI single dose (10 µM) SRB screen; format: cell-based, human; settings: colon cancer, 48 h
MCF7 = experiment: NCI single dose (10 µM) SRB screen; format: cell-based, human; settings: breast cancer, 48 h
NCI-H322M = experiment: NCI single dose (10 µM) SRB screen; format: cell-based; settings: non-small cell lung cancer, 48 h
M14 = experiment: NCI single dose (10 µM) SRB screen; format: cell-based, human; settings: melanoma, 48 h
UO-31 = experiment: NCI single dose (10 µM) SRB screen; format: cell-based, human; settings: renal cancer, 48 h

Question: `COC(=O)C1=C(C)NC(C)=C(C(=O)OC)C1c1cccc(C#N)c1` [Compound 1a, Dimethyl 4-(3-cyanophenyl)-2,6-dimethyl-1,4-dihydropyridine-3,5-dicarboxylate] was tested. Which “GI% NCI-H460” value (NCI-H460) did it give?
Answer: – (Only GI% ≥ 10 are shown)

Question: And the “GI% 786-0” value (786-0)?
Answer: – (Only GI% ≥ 10 are shown)

Question: And the “GI% SF-268” value (SF-268)?
Answer: – (Only GI% ≥ 10 are shown)

Question: And the zone of inhibition at 1000 µg/mL (Pseudomonas aeruginosa; Pseudomonas aeruginosa, 24 h, read-out: Diameter of inhibition zone, P. aeruginosa)?
Answer: 12 mm

Question: What about the “% activity index, P. aeruginosa” value (Pseudomonas aeruginosa; relative to ciprofloxacin) of the same molecule?
Answer: 52.2%

Question: And the “GI% SN12C” value (SN12C)?
Answer: – (Only GI% ≥ 10 are shown)

Question: What about the “GI% SF-539” value (SF-539) of the same molecule?
Answer: – (Only GI% ≥ 10 are shown)

Question: And the “GI% SR” value (SR)?
Answer: – (Only GI% ≥ 10 are shown)

Question: What about the “GI% A498” value (A498) of the same molecule?
Answer: – (Only GI% ≥ 10 are shown)

Question: And the “GI% CCRF-CEM” value (CCRF-CEM)?
Answer: – (Only GI% ≥ 10 are shown)

Question: What about the “GI% MDA-MB-231” value (MDA-MB-231) of the same molecule?
Answer: – (Only GI% ≥ 10 are shown)

Question: And the “GI% SK-OV-3” value (SK-OV-3)?
Answer: – (Only GI% ≥ 10 are shown)

Question: And the “GI% MALME-3M” value (MALME-3M)?
Answer: – (Only GI% ≥ 10 are shown)

Question: What about the “GI% HL-60(TB)” value (HL-60(TB)) of the same molecule?
Answer: – (Only GI% ≥ 10 are shown)

Question: What about the “GI% MDA-MB-468” value (MDA-MB-468) of the same molecule?
Answer: – (Only GI% ≥ 10 are shown)

Question: And the “GI% OVCAR-3” value (OVCAR-3)?
Answer: – (Only GI% ≥ 10 are shown)

Question: What about the “GI% COLO 205” value (COLO 205) of the same molecule?
Answer: – (Only GI% ≥ 10 are shown)

Question: What about the “GI% PC-3” value (PC-3) of the same molecule?
Answer: – (Only GI% ≥ 10 are shown)

Question: And the “GI% MDA-MB-435” value (MDA-MB-435)?
Answer: – (Only GI% ≥ 10 are shown)

Question: What about the “GI% DU-145” value (DU-145) of the same molecule?
Answer: – (Only GI% ≥ 10 are shown)

Question: And the “GI% RPMI-8226” value (RPMI-8226)?
Answer: – (Only GI% ≥ 10 are shown)

Question: What about the “GI% NCI-H522” value (NCI-H522) of the same molecule?
Answer: – (Only GI% ≥ 10 are shown)

Question: And the “GI% HOP-62” value (HOP-62)?
Answer: – (Only GI% ≥ 10 are shown)

Question: What about the “GI% SW-620” value (SW-620) of the same molecule?
Answer: – (Only GI% ≥ 10 are shown)

Question: What about the “GI% OVCAR-8” value (OVCAR-8) of the same molecule?
Answer: – (Only GI% ≥ 10 are shown)

Question: And the “GI% UACC-62” value (UACC-62)?
Answer: – (Only GI% ≥ 10 are shown)

Question: What about the “GI% SNB-75” value (SNB-75) of the same molecule?
Answer: 24%

Question: What about the “GI% MOLT-4” value (MOLT-4) of the same molecule?
Answer: – (Only GI% ≥ 10 are shown)

Question: And the “GI% RXF 393” value (RXF 393)?
Answer: – (Only GI% ≥ 10 are shown)

Question: What about the “GI% NCI-H23” value (NCI-H23) of the same molecule?
Answer: – (Only GI% ≥ 10 are shown)

Question: And the “GI% OVCAR-4” value (OVCAR-4)?
Answer: – (Only GI% ≥ 10 are shown)

Question: And the “GI% A549/ATCC” value (A549/ATCC)?
Answer: – (Only GI% ≥ 10 are shown)

Question: And the “GI% T-47D” value (T-47D)?
Answer: – (Only GI% ≥ 10 are shown)

Question: And the “GI% SNB-19” value (SNB-19)?
Answer: – (Only GI% ≥ 10 are shown)

Question: And the “GI% HOP-92” value (HOP-92)?
Answer: – (Only GI% ≥ 10 are shown)

Question: And the “GI% LOX IMVI” value (LOX IMVI)?
Answer: – (Only GI% ≥ 10 are shown)

Question: And the “GI% UACC-257” value (UACC-257)?
Answer: – (Only GI% ≥ 10 are shown)

Question: And the “GI% BT-549” value (BT-549)?
Answer: – (Only GI% ≥ 10 are shown)

Question: And the “GI% SK-MEL-28” value (SK-MEL-28)?
Answer: – (Only GI% ≥ 10 are shown)

Question: What about the “GI% HCC-2998” value (HCC-2998) of the same molecule?
Answer: – (Only GI% ≥ 10 are shown)

Question: What about the “Mean GI%” value (NCI 60 cancer cell lines) of the same molecule?
Answer: −4%

Question: What about the “GI% NCI/ADR-RES” value (NCI/ADR-RES) of the same molecule?
Answer: – (Only GI% ≥ 10 are shown)

Question: What about the zone of inhibition at 1000 µg/mL (Staphylococcus aureus; Staphylococcus aureus, 24 h, read-out: Diameter of inhibition zone, S. aureus) of the same molecule?
Answer: 13 mm

Question: And the “% activity index, S. aureus” value (Staphylococcus aureus; relative to ciprofloxacin)?
Answer: 54.2%

Question: What about the “GI% U251” value (U251) of the same molecule?
Answer: – (Only GI% ≥ 10 are shown)

Question: What about the “GI% SF-295” value (SF-295) of the same molecule?
Answer: – (Only GI% ≥ 10 are shown)

Question: And the zone of inhibition at 1000 µg/mL (Bacillus subtilis; Bacillus subtilis, 24 h, read-out: Diameter of inhibition zone, B. subtilis)?
Answer: 9 mm

Question: And the “% activity index, B. subtilis” value (Bacillus subtilis; relative to ciprofloxacin)?
Answer: 39.1%

Question: And the “GI% HCT-116” value (HCT-116)?
Answer: – (Only GI% ≥ 10 are shown)

Question: And the “GI% K-562” value (K-562)?
Answer: – (Only GI% ≥ 10 are shown)

Question: And the “GI% EKVX” value (EKVX)?
Answer: – (Only GI% ≥ 10 are shown)

Question: And the “GI% HCT-15” value (HCT-15)?
Answer: – (Only GI% ≥ 10 are shown)

Question: And the “GI% MCF7” value (MCF7)?
Answer: – (Only GI% ≥ 10 are shown)

Question: What about the “GI% NCI-H322M” value (NCI-H322M) of the same molecule?
Answer: – (Only GI% ≥ 10 are shown)

Question: What about the “GI% M14” value (M14) of the same molecule?
Answer: – (Only GI% ≥ 10 are shown)

Question: And the “GI% UO-31” value (UO-31)?
Answer: – (Only GI% ≥ 10 are shown)
